From EP0811378A1, “PREVENTIVE/REMEDY FOR INTERSTITIAL PNEUMONIA, INFLAMMATORY INTESTINAL DISEASES OR VASCULAR THICKENING CONTAINING QUINOLIZINONE COMPOUNDS, SALT THEREOF OR HYDRATES THEREFOR” (priority 1995, dated 1996)
Structures can show the parent of a compound that is named as a salt.

Columns and labels:
[1] = tested on: silica-induced pulmonary fibrosis; assay: Efficacy in a mouse model of silica-induced pulmonary fibrosis; format: in vivo, C57BL/6 mice; details: for Hydroxyproline content: lungs isolated 16 days after silica, Mean ± SE
Method: Using C57BL/6 mice (8 weeks old, male gender), the neck was incised under pentobarbital anesthesia and silica (2 mg/0.1 ml/animal) was administered intra-tracheally. A sham operated intact group received physiological saline in the same manner. The drug was orally administered daily beginning the day of silica treatment till the day immediately preceding sacrifice. Thus, test compound 1 and tranilast were respectively administered once after silica treatment and twice daily on the next and subsequent days, in morning and evening. In the sham operated and control groups, 0.5% methylcellulose was similarly administered. Sixteen (16) days after sensitization, the mice were bled to death under pentobarbital anesthesia and the lungs were isolated. The hydroxyproline content of the isolated lungs was assayed and used as an indicator of pulmonary fibrosis. The difference in mean value between the control group and the treatment group or the sham operated group was tested by one-way analysis of variance and Dunnett multiple-comparison test.

[2] = tested on: bleomycin-induced pulmonary fibrosis; assay: Efficacy in a mouse model of bleomycin-induced pulmonary fibrosis; format: in vivo, ICR mice; details: 1 mg/kg orally twice a day, day 28
Method: ICR mice (12 weeks old, male gender) were intravenously dosed with bleomycin (10 mg/kg) daily for 10 days. Test compound 1 was suspended in 0.5% methylcellulose solution and administered orally twice a day beginning the first day of bleomycin treatment till the day immediately preceding sacrifice. A control group received 0.5% methylcellulose solution in the like manner. Twenty-eight (28) days reckoning from administration of the initial dose of bleomycin, the mice were sacrificed, the lungs were isolated, and the lung hydroxyproline content was determined in accordance with Woessner's method. Histopathological specimens were also prepared at the same time and the degree of fibrotic change was evaluated after Azan-Mallory staining.

[3] = tested on: acetic acid-induced colitis; assay: Efficacy in a rat model of acetic acid-induced colitis; format: in vivo, SD rats; details: po, inhibition of lesion score, read-out: Degree of inhibition
Method: Male SD rats (7-8 weeks old) were deprived of food for 24 hours and a suspension of test compound 2 in 0.5% methylcellulose solution was administered orally. Thirty (30) minutes later, 1 ml/rat of 4% acetic acid in saline was infused from the anus under ether anesthesia. An intact group received a saline infusion. The infusion was carried out over 20 seconds. Then, the animal was held in inverted upright position for 30 seconds, after which 2 ml of phosphate buffer solution was infused for washout. Twenty-four (24) hours later, the animal was sacrificed by carbon dioxide inhalation, the large intestine was isolated, and the local lesion was scored according to the following criteria. Lesion score 0. No lesion 1. Hyperemia without ulceration 2. Inflammation (hyperemia and thickening of the bowel wall) or ulceration without definite inflammation 3. Ulceration with inflammation at 1 site 4. Ulceration with inflammation at 2 or more sites 5. A large ulcer sized 1 cm or more 6-10. An ulcer sized 2 cm or more; 1 point added for each increment of 1 cm

[4] = Oral acute toxicity in rats; format: in vivo

Question: With `O=C(Nc1nnn[nH]1)c1cc(Oc2ccccc2)c2ccccn2c1=O` [Test compound 1, N-[5-(1H-tetrazolyl)]-1-phenoxy-4H-quinolizin-4-one-3-carboxamide sodium salt] as the compound, how does the Hydroxyproline content ([1]; 1 mg/kg orally twice daily, n=10) read?
Answer: **144.41±9.69 µg/lung

Question: What about the inhibition at 1 mg/kg ([1]; Mus musculus, po, 384 h, inhibition of lung hydroxyproline content, 1 mg/kg orally twice daily, day 16, read-out: Degree of inhibition) of the same compound?
Answer: 88.7%

Question: What about the “Histopathological examination, degree of fibrotic change” value ([2]; Azan-Mallory staining) of the same compound?
Answer: definite inhibition of pulmonary fibrosis

Question: And the inhibition at 1 mg/kg ([2]; Mus musculus, po, 672 h, inhibition of lung hydroxyproline content, read-out: Degree of inhibition)?
Answer: 88.6%

Question: For `O=C(Nc1nnn[nH]1)c1cc(Oc2ccccc2)c2ccccn2c1=O` [Test compound 2, N-[5-(1H-tetrazolyl)]-1-phenoxy-4H-quinolizin-4-one-3-carboxamide sodium salt monohydrate], which inhibition at 1 mg/kg ([3]; 1 mg/kg orally) is on record?
Answer: 38.3%

Question: What about the inhibition at 10 mg/kg ([3]; 10 mg/kg orally) of the same compound?
Answer: 68.1%

Question: And the “oral acute toxicity LD50” value ([4]; female gender)?
Answer: ≥ 5 g/kg/day

Question: And the “oral acute toxicity LD50” value ([4]; male gender)?
Answer: 4.5 g/kg/day

Question: With `COc1ccc(/C=C/C(=O)Nc2ccccc2C(=O)O)cc1OC` [Tranilast, reference compound] as the compound, how does the Hydroxyproline content ([1]; 100 mg/kg orally twice daily, n=9) read?
Answer: 224.66±18.44 µg/lung

Question: What about the inhibition at 100 mg/kg ([1]; Mus musculus, po, 384 h, inhibition of lung hydroxyproline content, 100 mg/kg orally twice daily, day 16, read-out: Degree of inhibition) of the same compound?
Answer: 13.6%
